Test results from patent US20240335539A1, “MODULATION OF BCL-2 TO ENHANCE CHIMERIC ANTIGEN RECEPTOR CANCER IMMUNOTHERAPY EFFICACY” (The Trustees of the University of Pennsylvania, priority 2021, published 2024).

Key:
NALM6 = assay: Targeted pro-apoptotic small molecule screening with CART19 against NALM6, killing by luminescence at 48 hours; conditions: drug 100 and 1000 nM with CART19
Method: Killing of NALM6 cells was quantified at 48 hours by luminescence. Drug screening of pro-apoptotic small molecules was performed with two concentrations (100 and 1000 nM). […] Two concentrations of 29 drugs were used (100 nM and 1000 nM). Killing of NALM6 cells was assessed at 48 hours by luminescence. […] UTD: untransduced T cells; CART19: anti-CD19 CAR T cell; MCL: mantle cell lymphoma; E:T=ratio of effector to target; IAP: Inhibition of apoptosis protein.
CART19 and NALM6 (luciferase+) cells were seeded at a ratio of 0.08E:1T (i.e., 600 CART: 7000 NALM6) per well in 25 μl of growth medium (RPMI1640+10% FBS+1% Pen-strep+1% glutamine) of 384-well Corning 3570 microplate using a Multidrop™ Combi Reagent Dispenser (Thermo Scientific). Following cell seeding, drugs (50 nL) were transferred to assay plates using a 50 nL slotted pin tool (V&P Scientific) and a JANUS Automated Workstation (Perkin Elmer). Compounds/drugs were added to a final concentration of 1 μM in 0.2% DMSO. Columns 1 and 23 were treated with 0.2% DMSO (negative control). […] Luminescence was measured on an EnVision Xcite Multilabel Plate Reader (PerkinElmer), using the ultrasensitive luminescence measurement technology.
In order to screen pro-apoptotic small molecules that can enhance CART cell killing, a targeted screening assay was performed. […] Tumor killing was measured by luminescence at 48 hours.

CART19-BCL-2(WT) = assay: Cytotoxicity of doxorubicin on CART cells, 24 hours; type: cell-based, human; conditions: doxorubicin 300 and 1000 nM
Excerpt: FIGS. 26A-26H illustrate the finding that increased BCL-2 expression in T cells from CART apheretic products is associated with positive clinical outcomes in lymphoma patients at long term. FIG. 26A is a schematic description of the approach taken to investigate the relationship between the level of BCL-2 and CART's clinical response. RNA was extracted from T cells from apheretic products of 38 lymphoma patients who received CART19 immunotherapy (CTL019, i.e., tisagenleucleucel) in the clinical trial (NCT02030834). Next, BCL-2 mRNA expression was quantified via the nCounter analysis system (NanoString Technologies, Inc, Seattle, WA). FIG. 26B is a volcano plot showing differential gene expression in T cells based on best overall response (CR or NR). […] EGFR: Epidermal growth factor receptor.
Nevertheless, to further investigate the safety profile of this approach, whether CART19-BCL-2(WT) cells are still sensitive to conventional cytotoxic drugs such as chemotherapy (e.g., doxorubicin) was assessed. […] Furthermore, to enhance the safety profile of CART19-BCL-2(WT) cells, a CART suicide system (Paszkiewicz, et al., The Journal of clinical investigation 2016; 126(11):4262-72) was employed by expressing truncated EGFR into CART19-BCL-2(WT).

CART19 = assay: AZD5991 CART cell toxicity, co-culture with irradiated NALM6 for 120 hours; type: cell-based, human; conditions: 110-10000 nM, E:T 0.25:1
Method: To quantify CART cell toxicity, CART19 was co-cultured with irradiated NALM6 in the presence of either vehicle (DMSO), venetoclax or AZD5991 for 120 hours. After co-culture, samples were stained with anti-CD3 antibody and anti-CAR19 idiotype antibody to distinguish between effector (T cells) and target cells (NALM6). Survival of CART cell were then measured by using flow cytometry. E:T ratio=0.25:1. Concentrations of venetoclax and AZD5991: 110 nM, 330 nM, 1100 nM, 3300 nM and 10000 nM. […] All data represent mean±SD. **P<0.005, *P<0.05. ns: not significant.
To investigate this hypothesis, the expansion and persistence of CART19 cells in the peripheral blood of NSG mice treated with CART19 plus venetoclax or CART19 alone was analyzed using flow cytometry. […] To test whether prolonged exposure to venetoclax leads to CART cell toxicity, an in vitro venetoclax toxicity assay was performed using CART cells manufactured from 8 different T cell donors. […] Of note, the level of toxicity to CART cells varied among the different T cell donors, likely due to different apoptotic priming statuses at baseline. […] In order to discern whether the reduced survival was due to increased apoptosis or reduction of proliferation, the caspase 3/7 activity in CART19 was assessed in the presence or absence of venetoclax. […]

[1] = system: MINO, Z-138, MAVER, OCI-Ly18, SU-DHL-4, NALM6, MOLM-14; assay: CART plus venetoclax or AZD5991 tumor killing, 48 hours; type: cell-based; conditions: AZD5991 125 nM, with CART19 (CART33 for MOLM-14)
Method: To investigate whether inhibition of MCL-1, another key anti-apoptotic regulator, lead to enhancement of tumor killing, various B-cell malignant (luciferase+) cell lines were co-cultured with either vehicle (DMSO), venetoclax or AZD5991 in the presence of CART19 for 48 hours and change of luminescence intensity was measured to quantify the tumor killing. To test the combination effect of CART/drug in different tumor types, AML cell lines (luciferase positive MOLM-14) were co-cultured with CART33 in the presence of either venetoclax or AZD5991. Tumor killing (%) was calculated using the formula: (sample−maximal tumor growth)/(lysis control−maximal tumor growth)×100. MINO (Venetoclax: 1 nM, AZD5991: 125 nM), Z-138 (Venetoclax: 25 nM, AZD5991: 125 nM), MAVER (Venetoclax: 25 nM, AZD5991: 125 nM), OCI-Ly18 (Venetoclax: 10 nM, AZD5991: 125 nM), SU-DHL-4 (Venetoclax: 500 nM, AZD5991: 125 nM), NALM6 (Venetoclax: 500 nM, AZD5991: 125 nM), MOLM-14 (Venetoclax: 125 nM, AZD5991: 125 nM). […] CART19: anti-CD19 CAR T cell.
CART19 cells were co-cultured with either vehicle (DMSO) or venetoclax and cytotoxicity was measured at 48 hours. […] This effect was further confirmed using primary NHL cells (MCL) (FIG. 1D). […]

tumor cells = conditions: Karlsson et al. 2013; Yang et al. 2020; cited from earlier work

CC[C@H](NC(=O)[C@H](C)NC)C(=O)N1C[C@@H](O)C[C@H]1Cc1c(-c2[nH]c3cc(F)ccc3c2C[C@@H]2C[C@H](O)CN2C(=O)[C@H](CC)NC(=O)[C@H](C)NC)[nH]c2cc(F)ccc12 [birinapant]
Enhancement of CART19 killing / CART cell cytotoxicity (NALM6): increased CART cell cytotoxicity

COc1cccc2c1C(=O)c1c(O)c3c(c(O)c1C2=O)C[C@@](O)(C(=O)CO)C[C@@H]3O[C@H]1C[C@H](N)[C@H](O)[C@H](C)O1 [doxorubicin]
Elimination of BCL-2-expressing CART cells (CART19-BCL-2(WT)): fast and effective elimination of CART19-BCL-2(WT)

Cc1c2c(nn1C)CSCc1cc(n(C)n1)CSc1cc(c3ccccc3c1)OCCCc1c(C(=O)O)n(C)c3c-2c(Cl)ccc13 [AZD5991]
CART cell toxicity (CART survival) (CART19): induces severe CART cell toxicity
Enhancement of tumor killing in presence of CART [1]: venetoclax, but not AZD5991 (MCL-1 inhibitor), leads to enhancement of tumor killing

CN(C)CC[C@H](CSc1ccccc1)Nc1ccc(S(=O)(=O)NC(=O)c2ccc(N3CCN(Cc4ccccc4-c4ccc(Cl)cc4)CC3)cc2)cc1[N+](=O)[O-] [ABT737]
CART-mediated tumor killing (literature) (tumor cells): significant increase of CART-mediated tumor killing
